Data from patent US8192962B2, “Processes for detecting toxic substances” (Daikin Industries, Ltd., priority 2001, dated 2012).

Tested on: Metabolism protein genes
Assay: DNA chip mRNA expression in yeast, metabolism protein genes (Table 7)
Type: cell-based, Saccharomyces cerevisiae S288C
Summary of the method: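 Measured as treated-to-untreated fluorescence ratio on a full-genome yeast DNA chip. Cells (S288C, YPD, 25° C.) were exposed in log phase for two hours to one chemical, dosed to curb growth without killing.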

## S=C([S-])NCCNC(=S)[S-].[Zn+2] [(11), zinc N,N′-ethylenebis(dithiocarbamate)]
Yeast gene YAL012W
  The level of expressed mRNA in the presence of chemical substance/The level of expressed mRNA in the absence of chemical substance: 4.0
Yeast gene YAL038W
  The level of expressed mRNA in the presence of chemical substance/The level of expressed mRNA in the absence of chemical substance: 1.0
Yeast gene YBR003W
  level of expressed mRNA in the presence/in the absence of chemical substance: 1.3
Yeast gene YBR011C
  level of expressed mRNA in the presence/in the absence of chemical substance: 1.7
Yeast gene YBR020W
  level of expressed mRNA in the presence/in the absence of chemical substance: 1.0
Yeast gene YBR023C
  The level of expressed mRNA in the presence of chemical substance/The level of expressed mRNA in the absence of chemical substance: 0.9
Yeast gene YBR029C
  The level of expressed mRNA in the presence of chemical substance/The level of expressed mRNA in the absence of chemical substance: 0.7
Yeast gene YBR183W
  The level of expressed mRNA in the presence of chemical substance/The level of expressed mRNA in the absence of chemical substance: 1.9
Yeast gene YBR222C
  The level of expressed mRNA in the presence of chemical substance/The level of expressed mRNA in the absence of chemical substance: 1.3
Yeast gene YBR256C
  The level of expressed mRNA in the presence of chemical substance/The level of expressed mRNA in the absence of chemical substance: 3.2
Yeast gene YCL009C
  The level of expressed mRNA in the presence of chemical substance/The level of expressed mRNA in the absence of chemical substance: 1.5
Yeast gene YCL064C
  The level of expressed mRNA in the presence of chemical substance/The level of expressed mRNA in the absence of chemical substance: 1.8
Yeast gene YCR010C
  level of expressed mRNA in the presence/in the absence of chemical substance: 1.1
Yeast gene YCR034W
  level of expressed mRNA in the presence/in the absence of chemical substance: 0.8
Yeast gene YCR048W
  The level of expressed mRNA in the presence of chemical substance/The level of expressed mRNA in the absence of chemical substance: 1.2
Yeast gene YCR098C
  The level of expressed mRNA in the presence of chemical substance/The level of expressed mRNA in the absence of chemical substance: 1.3
Yeast gene YDR019C
  The level of expressed mRNA in the presence of chemical substance/The level of expressed mRNA in the absence of chemical substance: 1.8
Yeast gene YDR050C
  level of expressed mRNA in the presence/in the absence of chemical substance: 2.0
Yeast gene YDR073W
  level of expressed mRNA in the presence/in the absence of chemical substance: 1.0
Yeast gene YDR123C
  level of expressed mRNA in the presence/in the absence of chemical substance: 0.6
Yeast gene YDR178W
  level of expressed mRNA in the presence/in the absence of chemical substance: 2.0
Yeast gene YDR277C
  level of expressed mRNA in the presence/in the absence of chemical substance: 1.2
Yeast gene YDR284C
  level of expressed mRNA in the presence/in the absence of chemical substance: 1.3
Yeast gene YDR345C
  level of expressed mRNA in the presence/in the absence of chemical substance: 1.5
Yeast gene YDR380W
  The level of expressed mRNA in the presence of chemical substance/The level of expressed mRNA in the absence of chemical substance: 0.4
Yeast gene YDR400W
  level of expressed mRNA in the presence/in the absence of chemical substance: 1.3
Yeast gene YDR408C
  level of expressed mRNA in the presence/in the absence of chemical substance: 1.7
Yeast gene YDR483W
  level of expressed mRNA in the presence/in the absence of chemical substance: 1.4
Yeast gene YDR497C
  The level of expressed mRNA in the presence of chemical substance/The level of expressed mRNA in the absence of chemical substance: 0.7
Yeast gene YDR502C
  The level of expressed mRNA in the presence of chemical substance/The level of expressed mRNA in the absence of chemical substance: 1.3
Yeast gene YDR516C
  The level of expressed mRNA in the presence of chemical substance/The level of expressed mRNA in the absence of chemical substance: 2.8
Yeast gene YEL063C
  level of expressed mRNA in the presence/in the absence of chemical substance: 0.8
Yeast gene YER015W
  level of expressed mRNA in the presence/in the absence of chemical substance: 1.0
Yeast gene YER026C
  The level of expressed mRNA in the presence of chemical substance/The level of expressed mRNA in the absence of chemical substance: 0.9
Yeast gene YER053C
  The level of expressed mRNA in the presence of chemical substance/The level of expressed mRNA in the absence of chemical substance: 2.4
Yeast gene YER069W
  The level of expressed mRNA in the presence of chemical substance/The level of expressed mRNA in the absence of chemical substance: 1.5
Yeast gene YER081W
  level of expressed mRNA in the presence/in the absence of chemical substance: 1.1
Yeast gene YER096W
  The level of expressed mRNA in the presence of chemical substance/The level of expressed mRNA in the absence of chemical substance: 1.1
Yeast gene YER120W
  level of expressed mRNA in the presence/in the absence of chemical substance: 1.1
Yeast gene YER178W
  The level of expressed mRNA in the presence of chemical substance/The level of expressed mRNA in the absence of chemical substance: 2.5
Yeast gene YFL011W
  level of expressed mRNA in the presence/in the absence of chemical substance: 2.1
Yeast gene YFL014W
  The level of expressed mRNA in the presence of chemical substance/The level of expressed mRNA in the absence of chemical substance: 5.0
Yeast gene YFL030W
  The level of expressed mRNA in the presence of chemical substance/The level of expressed mRNA in the absence of chemical substance: 5.4
Yeast gene YFL031W
  The level of expressed mRNA in the presence of chemical substance/The level of expressed mRNA in the absence of chemical substance: 1.2
Yeast gene YFL056C
  The level of expressed mRNA in the presence of chemical substance/The level of expressed mRNA in the absence of chemical substance: 68.3
Yeast gene YFL057C
  The level of expressed mRNA in the presence of chemical substance/The level of expressed mRNA in the absence of chemical substance: 27.7
Yeast gene YFR015C
  The level of expressed mRNA in the presence of chemical substance/The level of expressed mRNA in the absence of chemical substance: 3.9
Yeast gene YFR047C
  The level of expressed mRNA in the presence of chemical substance/The level of expressed mRNA in the absence of chemical substance: 2.3
Yeast gene YGL012W
  level of expressed mRNA in the presence/in the absence of chemical substance: 0.6
Yeast gene YGL022W
  The level of expressed mRNA in the presence of chemical substance/The level of expressed mRNA in the absence of chemical substance: 0.8
Yeast gene YGL115W
  level of expressed mRNA in the presence/in the absence of chemical substance: 1.0
Yeast gene YGL126W
  The level of expressed mRNA in the presence of chemical substance/The level of expressed mRNA in the absence of chemical substance: 1.0
Yeast gene YGL205W
  level of expressed mRNA in the presence/in the absence of chemical substance: 0.4
Yeast gene YGL209W
  The level of expressed mRNA in the presence of chemical substance/The level of expressed mRNA in the absence of chemical substance: 0.8
Yeast gene YGL248W
  The level of expressed mRNA in the presence of chemical substance/The level of expressed mRNA in the absence of chemical substance: 1.0
Yeast gene YGR037C
  The level of expressed mRNA in the presence of chemical substance/The level of expressed mRNA in the absence of chemical substance: 1.4
Yeast gene YGR055W
  The level of expressed mRNA in the presence of chemical substance/The level of expressed mRNA in the absence of chemical substance: 1.5
Yeast gene YGR096W
  level of expressed mRNA in the presence/in the absence of chemical substance: 0.8
Yeast gene YGR191W
  level of expressed mRNA in the presence/in the absence of chemical substance: 1.6
Yeast gene YGR194C
  The level of expressed mRNA in the presence of chemical substance/The level of expressed mRNA in the absence of chemical substance: 0.7
Yeast gene YGR204W
  level of expressed mRNA in the presence/in the absence of chemical substance: 2.1
Yeast gene YGR256W
  The level of expressed mRNA in the presence of chemical substance/The level of expressed mRNA in the absence of chemical substance: 2.7
Yeast gene YGR282C
  The level of expressed mRNA in the presence of chemical substance/The level of expressed mRNA in the absence of chemical substance: 1.5
Yeast gene YGR288W
  level of expressed mRNA in the presence/in the absence of chemical substance: 1.3
Yeast gene YHR025W
  level of expressed mRNA in the presence/in the absence of chemical substance: 2.1
Yeast gene YHR111W
  The level of expressed mRNA in the presence of chemical substance/The level of expressed mRNA in the absence of chemical substance: 1.9
Yeast gene YHR123W
  level of expressed mRNA in the presence/in the absence of chemical substance: 1.2
Yeast gene YHR137W
  The level of expressed mRNA in the presence of chemical substance/The level of expressed mRNA in the absence of chemical substance: 0.6
Yeast gene YHR174W
  The level of expressed mRNA in the presence of chemical substance/The level of expressed mRNA in the absence of chemical substance: 1.4
Yeast gene YHR176W
  The level of expressed mRNA in the presence of chemical substance/The level of expressed mRNA in the absence of chemical substance: 1.2
Yeast gene YHR210C
  level of expressed mRNA in the presence/in the absence of chemical substance: 1.5
Yeast gene YIL006W
  level of expressed mRNA in the presence/in the absence of chemical substance: 1.0
Yeast gene YIL045W
  The level of expressed mRNA in the presence of chemical substance/The level of expressed mRNA in the absence of chemical substance: 1.2
Yeast gene YIL107C
  The level of expressed mRNA in the presence of chemical substance/The level of expressed mRNA in the absence of chemical substance: 0.9
Yeast gene YIL154C
  The level of expressed mRNA in the presence of chemical substance/The level of expressed mRNA in the absence of chemical substance: 1.2
Yeast gene YIL155C
  The level of expressed mRNA in the presence of chemical substance/The level of expressed mRNA in the absence of chemical substance: 1.3
Yeast gene YIL167W
  The level of expressed mRNA in the presence of chemical substance/The level of expressed mRNA in the absence of chemical substance: 1.9
Yeast gene YIR017C
  The level of expressed mRNA in the presence of chemical substance/The level of expressed mRNA in the absence of chemical substance: 4.2
Yeast gene YIR034C
  The level of expressed mRNA in the presence of chemical substance/The level of expressed mRNA in the absence of chemical substance: 3.0
Yeast gene YIR036C
  The level of expressed mRNA in the presence of chemical substance/The level of expressed mRNA in the absence of chemical substance: 2.8
Yeast gene YJL031C
  The level of expressed mRNA in the presence of chemical substance/The level of expressed mRNA in the absence of chemical substance: 1.9
Yeast gene YJL068C
  The level of expressed mRNA in the presence of chemical substance/The level of expressed mRNA in the absence of chemical substance: 3.2
Yeast gene YJL088W
  The level of expressed mRNA in the presence of chemical substance/The level of expressed mRNA in the absence of chemical substance: 0.9
Yeast gene YJL099W
  The level of expressed mRNA in the presence of chemical substance/The level of expressed mRNA in the absence of chemical substance: 0.9
Yeast gene YJL121C
  level of expressed mRNA in the presence/in the absence of chemical substance: 1.1
Yeast gene YJL167W
  level of expressed mRNA in the presence/in the absence of chemical substance: 1.2
Yeast gene YJL172W
  The level of expressed mRNA in the presence of chemical substance/The level of expressed mRNA in the absence of chemical substance: 1.4
Yeast gene YJL216C
  level of expressed mRNA in the presence/in the absence of chemical substance: 1.1
Yeast gene YJL219W
  The level of expressed mRNA in the presence of chemical substance/The level of expressed mRNA in the absence of chemical substance: 2.3
Yeast gene YJR077C
  level of expressed mRNA in the presence/in the absence of chemical substance: 1.6
Yeast gene YJR137C
  The level of expressed mRNA in the presence of chemical substance/The level of expressed mRNA in the absence of chemical substance: 2.0
Yeast gene YJR143C
  level of expressed mRNA in the presence/in the absence of chemical substance: 1.3
Yeast gene YJR148W
  The level of expressed mRNA in the presence of chemical substance/The level of expressed mRNA in the absence of chemical substance: 0.6
